Laboratory results taken from patent EP1206258B1, “COMPOSITIONS CONTAINING ESTERS FOR TREATING PARASITIC INFESTATIONS OF ORGANISMS” (priority 1999, dated 2001).

Legend:
Psoroptes cuniculi = assay: in vitro immersion assay on the mite Psoroptes cuniculi; details: for mites had died: exposed for 24 hours, control 8%
Method: A series of in vitro assays were conducted to examine the effects of the compound trans-cinnamic acid ethyl ester on the mite Psoroptes cuniculi. This mite infests rabbits and is very similar to the mite Psoroptes ovis which infests sheep and causes sheep scab.
The mites were taken from the ears of infested rabbits and exposed for 24 hours to the active compound at concentrations of 10, 1 or 0.1 % (V/V). The concentrations were obtained by serial dilution of the compound in 0.05% sodium dodecyl sulphate (SDS).
This is illustrated in Figure 2 of the accompanying drawings.
The LC95 was 6.29% (95% confidence interval 4.98-8.88).
Line (1) represents adult males, line (2) adult females and (3) female nymphs.
Thus, trans-cinnamic acid ethyl ester gives greater than 50% levels of mortality within 24 hours, for all life cycle stages of P. cuniculi after short contact times (1 min) at concentrations of 2.2% (V/V). At one minute contact time, concentrations of greater than 6% (V/V) are required to bring about mortality of greater than 95%. Recent theoretical analysis using simulation modelling (Wall, unpublished) has shown that sustained mortality of greater than 50% per day is required to suppress a growing population of P. ovis.

Aspergillus nidulans = assay: growth inhibition test on SAB agar, A. nidulans; type: cell-based
Method: The antifungal activity of ethyl trans-cinnamate against a number of different fungi was investigated by means of in a simple growth inhibition test.
The following quantities of Ethyl trans-Cinnamate were added to Sabourand Dextrose agar (SAB); 50 ml L^-1, 4ml L^-1, 2ml L^-1, 1ml L^-1, 400 µl L^-1, 200 µl L^-1 and 40 µl L^-1. […] These were then autoclaved and poured into standard Petri dishes. […] Duplicate plates of each concentration, plus control plates containing only SAB Agar, where then separately inoculated with, four different species of fungi, these were Aspergillus nidulans, Penicillium digitatum, Rhizopus arrhizus and Fusarium culmorum. Inoculation was carried out using a single stab at the centre of each Petri dish. The plates were then incubated at 30°C for 6 days and daily measurements of mycobial growth where taken every 24 hours.

## CCOC(=O)/C=C/c1ccccc1 [trans-cinnamic acid ethyl ester]
Psoroptes cuniculi; 0.1% (V/V), same as control (0.05% SDS only)
  LT50: approximately 2.5 days
Psoroptes cuniculi; 24 hours after exposure
  LD 25 Concentration (% V/V): 0.53 % V/V
  LD 50 Concentration (% V/V) (LC50): 2.21 % V/V
  LD 75 Concentration (% V/V): 3.88 % V/V
  LD 95 Concentration (% V/V) (LC95): 6.29 % V/V
Psoroptes cuniculi; concentration 1%
  50% mortality (LT50): 1 days
Psoroptes cuniculi; concentration 10%
  50% mortality (LT50): 0.5 days
Psoroptes cuniculi; 0.1 % (V/V) in 0.05% SDS
  mites had died: 20%
Psoroptes cuniculi; 1 % (V/V) in 0.05% SDS
  mites had died: 74%
Psoroptes cuniculi; 10 % (V/V) in 0.05% SDS
  mites had died: 100%
Psoroptes cuniculi; one minute contact time
  concentrations required to bring about mortality of greater than 95%: greater than 6 % (V/V)
Psoroptes cuniculi; within 24 hours, all life cycle stages, contact time 1 min, 2.2% (V/V)
  levels of mortality: greater than 50%
Aspergillus nidulans; 1ml L^-1, Day 1
  Level of Radial Growth (mm) of A. nidulans: 0 mm
Aspergillus nidulans; 1ml L^-1, Day 2
  Level of Radial Growth (mm) of A. nidulans: 0 mm
Aspergillus nidulans; 1ml L^-1, Day 3
  Level of Radial Growth (mm) of A. nidulans: 6.0 mm
Aspergillus nidulans; 1ml L^-1, Day 4
  Level of Radial Growth (mm) of A. nidulans: 11.5 mm
Aspergillus nidulans; 1ml L^-1, Day 5
  Level of Radial Growth (mm) of A. nidulans: 16.5 mm
Aspergillus nidulans; 1ml L^-1, Day 6
  Level of Radial Growth (mm) of A. nidulans: 22.0 mm
Aspergillus nidulans; 2ml L^-1, Day 1
  Level of Radial Growth (mm) of A. nidulans: 0 mm
Aspergillus nidulans; 2ml L^-1, Day 2
  Level of Radial Growth (mm) of A. nidulans: 0 mm
Aspergillus nidulans; 2ml L^-1, Day 3
  Level of Radial Growth (mm) of A. nidulans: 0 mm
Aspergillus nidulans; 2ml L^-1, Day 4
  Level of Radial Growth (mm) of A. nidulans: 0 mm
Aspergillus nidulans; 2ml L^-1, Day 5
  Level of Radial Growth (mm) of A. nidulans: 6.5 mm
Aspergillus nidulans; 2ml L^-1, Day 6
  Level of Radial Growth (mm) of A. nidulans: 12.5 mm
Aspergillus nidulans; 4ml L^-1, Day 1
  Level of Radial Growth (mm) of A. nidulans: 0 mm
Aspergillus nidulans; 4ml L^-1, Day 2
  Level of Radial Growth (mm) of A. nidulans: 0 mm
Aspergillus nidulans; 4ml L^-1, Day 3
  Level of Radial Growth (mm) of A. nidulans: 0 mm
Aspergillus nidulans; 4ml L^-1, Day 4
  Level of Radial Growth (mm) of A. nidulans: 0 mm
Aspergillus nidulans; 4ml L^-1, Day 5
  Level of Radial Growth (mm) of A. nidulans: 0 mm
Aspergillus nidulans; 4ml L^-1, Day 6
  Level of Radial Growth (mm) of A. nidulans: 4.5 mm
Aspergillus nidulans; 40µl L^-1, Day 1
  Level of Radial Growth (mm) of A. nidulans: 0 mm
Aspergillus nidulans; 40µl L^-1, Day 2
  Level of Radial Growth (mm) of A. nidulans: 12.0 mm
Aspergillus nidulans; 40µl L^-1, Day 3
  Level of Radial Growth (mm) of A. nidulans: 23.0 mm
Aspergillus nidulans; 40µl L^-1, Day 4
  Level of Radial Growth (mm) of A. nidulans: 27.0 mm
Aspergillus nidulans; 40µl L^-1, Day 5
  Level of Radial Growth (mm) of A. nidulans: 32.5 mm
Aspergillus nidulans; 40µl L^-1, Day 6
  Level of Radial Growth (mm) of A. nidulans: 38 mm
Aspergillus nidulans; 50ml L-^1 level
  inhibition of growth: complete inhibition of growth
Aspergillus nidulans; 50 ml L^-1, Day 1
  Level of Radial Growth (mm) of A. nidulans: 0 mm
Aspergillus nidulans; 50 ml L^-1, Day 2
  Level of Radial Growth (mm) of A. nidulans: 0 mm
Aspergillus nidulans; 50 ml L^-1, Day 3
  Level of Radial Growth (mm) of A. nidulans: 0 mm
Aspergillus nidulans; 50 ml L^-1, Day 4
  Level of Radial Growth (mm) of A. nidulans: 0 mm
Aspergillus nidulans; 50 ml L^-1, Day 5
  Level of Radial Growth (mm) of A. nidulans: 0 mm
Aspergillus nidulans; 50 ml L^-1, Day 6
  Level of Radial Growth (mm) of A. nidulans: 0 mm
Aspergillus nidulans; 200µl L^-1, Day 1
  Level of Radial Growth (mm) of A. nidulans: 0 mm
Aspergillus nidulans; 200µl L^-1, Day 2
  Level of Radial Growth (mm) of A. nidulans: 9.5 mm
Aspergillus nidulans; 200µl L^-1, Day 3
  Level of Radial Growth (mm) of A. nidulans: 16.5 mm
Aspergillus nidulans; 200µl L^-1, Day 4
  Level of Radial Growth (mm) of A. nidulans: 23.0 mm
Aspergillus nidulans; 200µl L^-1, Day 5
  Level of Radial Growth (mm) of A. nidulans: 28.0 mm
Aspergillus nidulans; 200µl L^-1, Day 6
  Level of Radial Growth (mm) of A. nidulans: 34.5 mm
Aspergillus nidulans; 400µl L^-1, Day 1
  Level of Radial Growth (mm) of A. nidulans: 0 mm
